# Experiments:
# Format in all cases: biochemical
# Details in all cases: role: inhibitor; substrate FRET peptide
# MMP9 = MMP9 (Homo sapiens, UniProt P14780); experiment: FRET peptide cleavage assay, MMP9 activity and its inhibition
# From the text: (§1) A possible application of the peptides is the analysis of protease activity and the effect of substances on it. This can be utilized for understanding the role of proteases in physiological and pathological processes as well as for targeting proteases for disease diagnosis or treatment. […] 7-Methoxycoumain-4-acetic acid (Mca) is a is a fluorescent dye with an excitation peak at 322 nm and an emission peak at 381 nm. The absorbance spectrum of 2,4-dinitrophenyl (Dnp) overlaps with the emission spectrum of Mca, therefore it acts as a quencher. As long as both are in close proximity (up to about 5-10 nm), excitation of Mca leads to energy transfer to Dnp. Separation of the fluorophore-quencher pair by hydrolysis of the protease-specific cleavage site between both compounds liberates the fluorescence signal and the rise in its intensity can easily be monitored overtime. This method is sensitive and time efficient. It allows quantitative assessment of enzymatic activity and the developed fluorogenic substrates are suitable for high throughput screening, for example of protease inhibitors.
# MMP8 = MMP8 (Homo sapiens, UniProt P22894); experiment: FRET peptide cleavage assay, MMP8 activity and its inhibition
# Chain of MMP8 (P22894 101-467): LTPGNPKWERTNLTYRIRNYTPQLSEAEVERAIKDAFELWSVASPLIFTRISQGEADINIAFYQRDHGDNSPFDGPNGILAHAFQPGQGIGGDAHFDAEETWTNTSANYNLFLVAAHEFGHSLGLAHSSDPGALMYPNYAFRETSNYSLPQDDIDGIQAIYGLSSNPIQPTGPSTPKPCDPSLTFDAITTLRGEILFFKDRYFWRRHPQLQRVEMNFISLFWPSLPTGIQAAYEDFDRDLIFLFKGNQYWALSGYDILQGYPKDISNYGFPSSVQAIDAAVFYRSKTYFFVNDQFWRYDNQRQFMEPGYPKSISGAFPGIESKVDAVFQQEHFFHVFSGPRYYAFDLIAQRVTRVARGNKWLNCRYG
# From the text: as §1
# MMP13 = MMP13 (Homo sapiens, UniProt P45452); experiment: FRET peptide cleavage assay, MMP13 activity and its inhibition
# From the text: as §1, with “overtime.” for “overtime. This method is sensitive and time efficient. It allows quantitative assessment of enzymatic activity and the developed fluorogenic substrates are suitable for high throughput screening, for example of protease inhibitors.”
# Chain of MMP9 (P14780 94-707): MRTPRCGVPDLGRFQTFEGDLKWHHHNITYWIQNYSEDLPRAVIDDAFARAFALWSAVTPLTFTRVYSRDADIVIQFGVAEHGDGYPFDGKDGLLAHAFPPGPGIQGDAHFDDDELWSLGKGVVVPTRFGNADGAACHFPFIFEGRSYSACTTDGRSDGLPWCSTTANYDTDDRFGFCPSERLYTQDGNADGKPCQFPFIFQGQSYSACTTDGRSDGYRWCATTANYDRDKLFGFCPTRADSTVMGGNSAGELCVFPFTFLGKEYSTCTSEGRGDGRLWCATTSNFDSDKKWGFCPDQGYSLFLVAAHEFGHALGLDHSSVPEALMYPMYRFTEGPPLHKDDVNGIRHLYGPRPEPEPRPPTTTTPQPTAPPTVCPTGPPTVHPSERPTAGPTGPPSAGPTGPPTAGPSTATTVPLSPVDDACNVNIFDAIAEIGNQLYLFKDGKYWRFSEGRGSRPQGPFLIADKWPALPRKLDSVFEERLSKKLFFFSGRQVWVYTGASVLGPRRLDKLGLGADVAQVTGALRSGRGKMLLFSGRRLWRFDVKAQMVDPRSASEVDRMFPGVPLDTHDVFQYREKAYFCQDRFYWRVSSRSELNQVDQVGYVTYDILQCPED
Compound,loss of MMP9 activity (MMP9),loss of MMP8 activity (MMP8),loss of MMP13 activity (MMP13)
O=C(O)CN(CCN(CC(=O)O)CC(=O)O)CC(=O)O [EDTA],complete loss,complete loss,complete loss
CCCCCCCCCCCCOS(=O)(=O)[O-].[Na+] [SDS],complete loss,complete loss,complete loss
CNC(=O)[C@@H](NC(=O)[C@H](CC(C)C)[C@H](O)C(=O)NO)C(C)(C)C [Marimastat],complete loss,complete loss,–
